Test results reported in patent publication EP4722219A1 (Gan & Lee Pharmaceuticals Co., Ltd., priority 2023, dated 2024).

Key:
AR protein = biological target: T1, AR protein (Homo sapiens, UniProt P10275); experiment: AR protein degradation in VCaP cells (Western blot); format: cell-based; details: 8h
T1 construct: host or cells: VCaP
T1 sequence (P10275 1-920): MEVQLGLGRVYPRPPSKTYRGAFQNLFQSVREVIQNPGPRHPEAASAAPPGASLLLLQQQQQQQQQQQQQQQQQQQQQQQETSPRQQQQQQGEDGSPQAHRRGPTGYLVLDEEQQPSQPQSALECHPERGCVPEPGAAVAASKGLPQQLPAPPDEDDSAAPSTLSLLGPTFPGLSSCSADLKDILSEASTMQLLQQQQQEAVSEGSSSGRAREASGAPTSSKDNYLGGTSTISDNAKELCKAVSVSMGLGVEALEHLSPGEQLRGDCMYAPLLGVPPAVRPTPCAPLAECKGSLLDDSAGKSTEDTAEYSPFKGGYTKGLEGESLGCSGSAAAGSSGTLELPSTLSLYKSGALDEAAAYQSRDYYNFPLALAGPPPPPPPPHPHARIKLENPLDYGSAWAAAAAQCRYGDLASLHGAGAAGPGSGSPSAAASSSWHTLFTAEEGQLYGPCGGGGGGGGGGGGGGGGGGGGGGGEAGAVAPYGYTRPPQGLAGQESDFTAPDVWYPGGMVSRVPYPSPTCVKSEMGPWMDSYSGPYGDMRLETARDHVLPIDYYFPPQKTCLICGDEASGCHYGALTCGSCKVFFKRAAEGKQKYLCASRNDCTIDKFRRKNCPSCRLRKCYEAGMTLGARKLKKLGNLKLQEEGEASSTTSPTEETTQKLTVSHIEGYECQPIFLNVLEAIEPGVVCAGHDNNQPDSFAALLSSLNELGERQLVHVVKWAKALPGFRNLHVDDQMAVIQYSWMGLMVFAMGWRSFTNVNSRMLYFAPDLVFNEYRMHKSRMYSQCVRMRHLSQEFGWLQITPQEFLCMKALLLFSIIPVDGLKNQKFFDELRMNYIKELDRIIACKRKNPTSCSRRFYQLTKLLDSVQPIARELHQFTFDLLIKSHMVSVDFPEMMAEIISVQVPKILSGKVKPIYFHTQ
Procedure, shortened: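 AR-positive VCaP human prostate cancer cells grown in DMEM with 10% FBS were plated in six-well plates at 3×10^5 cells/well and incubated overnight. Compounds were then added at 1 µL/well alongside a solvent control and incubated for 8h. Lysates in RIPA buffer with protease inhibitor were quantified by BCA and run by SDS-PAGE. AR was detected by Western blot, and degradation was calculated from band grayscale normalized to GAPDH.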

LNCaP cells = experiment: Inhibition of LNCaP cell proliferation (WST-8); format: cell-based; details: LNCaP FGC cells, 96 hours
Procedure, shortened: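 Cells were seeded and cultured overnight at 37 °C, 5% CO2, then exposed for 96 h to compound at 9 concentrations, 5-fold serial dilution from 10 µM final. Viability was read by WST-8 absorbance at 450 nm.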

| Compound | Degradation rate of AR protein in VCaP cells (AR protein; 0.5 nM) [%] | Degradation rate of AR protein in VCaP cells (AR protein; 5 nM) [%] | IC50 (LNCaP cells; Homo sapiens) [µM] | IC50 (LNCaP cells) [µM] | AR protein degradation rate at fixed concentration (%) at 0.0005 µM (AR protein; 0.5 nM) [%] | AR protein degradation rate at fixed concentration (%) at 0.005 µM (AR protein; 5 nM) [%] |
| --- | --- | --- | --- | --- | --- | --- |
| CC1(C)[C@H](NC(=O)c2ccc(N3CCC(CN4CCC5(CCc6cc(C(=O)N[C@H]7CCC(=O)NC7=O)c(F)cc6O5)CC4)CC3)nc2)C(C)(C)[C@H]1Oc1ccc(C#N)c(C(F)(F)F)c1 [A-P-45, 1'-((1-(5-(((1R,3R)-3-(4-cyano-3-(trifluoromethyl)phenoxy)-2,2,4,4-tetramethylcyclobutyl)carbamoyl)pyridin-2-yl)piperidin-4-yl)methyl)-N-((S)-2,6-dioxopiperidin-3-yl)-7-fluorospiro[chroman-2,4'-piperidin]-6-carboxamide] | 44 | 77 | 0.57 | – | – | – |
| N#Cc1ccc(O[C@H]2CC[C@H](NC(=O)c3ccc(N4CCC(N5CC6(CCC7(CC6)COc6c7ccc7c6CN(C6CCC(=O)NC6=O)C7=O)C5)CC4)nn3)CC2)cc1Cl (relative stereo) [A-P-1, N-((1r,4r)-4-(3-chloro-4-cyanophenoxy)cyclohexyl)-6-(4-(7'-(2,6-dioxopiperidin-3-yl)-6'-oxo-7',8'-dihydro-2'-H,6'-H-dihydro[azetidine-3,1'-cyclohexane-4',3"-furo[2,3-e]isoindol]-1-yl)piperidin-1-yl)pyridazine-3-carboxamide] | 69 | 82 | > 10 | – | – | – |
| COc1cc(O[C@H]2C(C)(C)[C@H](NC(=O)c3ccc(N4CCC(C)(CN5CCC6(CCc7cc(C(=O)N[C@H]8CCC(=O)NC8=O)c(F)cc7O6)CC5)CC4)nn3)C2(C)C)ccc1C#N [A-P-48, 1'-((1-(6-(((1R,3R)-3-(4-cyano-3-methoxyphenoxy)-2,2,4,4-tetramethylcyclobutyl)carbamoyl)pyridazin-3-yl)-4-methylpiperidin-4-yl)methyl)-N-((S)-2,6-dioxopiperidin-3-yl)-7-fluorospiro[chroman-2,4'-piperidin]-6-carboxamide] | -23 | -1 | 0.86 | – | – | – |
| N-(1r,4r)-4-(3-chloro-4-cyanophenoxy)cyclohexy 1)-6-(4-(7-(2,6-dioxopiperidin-3-yl))-6-oxo-7,8-dihydro-2H,6H-dipyrido[2,3-e]isoindole-3,1'-cyclohexane-4',4‴-piperidin]-1"-yl)pyridazine-3-carboxamide [A-P-32] | 14 | 59 | – | 0.57 | – | – |
| C[C@H]1CC2(CCN(c3ccc(C(=O)N4CCC(CN5CCN6c7ccc(C(=O)N[C@H]8CCC(=O)NC8=O)cc7OC[C@@H]6C5)CC4)cc3)CC2)CN1c1ccc(C#N)c(Cl)c1 [A-P-69] | -9 | 18 | 0.28 | – | – | – |
| Cn1c(=O)n(C2CCC(=O)NC2=O)c2ccc3c(c21)OCC31CCN(C2CC3(CCN(c4ccc(C(=O)N[C@H]5CC[C@H](Oc6ccc(C#N)c(Cl)c6)CC5)nn4)CC3)C2)CC1 (stereo partly drawn) [A-P-25] | – | – | 47.7 | – | 91 | 90 |
| COc1cc(O[C@H]2C(C)(C)[C@H](NC(=O)c3ccc(N4CCC(CN5CCC6(CCc7cc(C(=O)N[C@H]8CCC(=O)NC8=O)c(F)cc7O6)CC5)CC4)cc3)C2(C)C)ccc1C#N [A-P-30] | 36 | 71 | 1.48 | – | – | – |
| COc1cc(O[C@H]2C(C)(C)[C@H](NC(=O)c3ccc(N4CCC(N5CCC6(CC5)COc5c6ccc6c5n(C)c(=O)n6C5CCC(=O)NC5=O)CC4)cc3)C2(C)C)ccc1C#N (stereo partly drawn) [A-P-29] | – | – | 15.1 | – | 70 | 68 |
| C[C@H]1CC2(CCN(c3ccc(C(=O)N4CCC(CN5CCC6(CCc7cc(C(=O)N[C@H]8CCC(=O)NC8=O)c(F)cc7O6)CC5)CC4)cc3)CC2)CN1c1ccc(C#N)c(Cl)c1 [A-P-35, 1'-((1-(4-((S)-2-(3-chloro-4-cyanophenyl)-3-methyl-2,8-diazaspiro[4.5]decan-8-yl)benzoyl)piperidin-4-yl)methyl)-N-((S)-2,6-dioxopiperidin-3-yl)-7-fluorospiro[chroman-2,4'-piperidin]-6-carboxamide] | – | – | 0.28 | – | 9 | 18 |
| COc1cc(O[C@H]2C(C)(C)[C@H](NC(=O)c3ccc(N4CCC5(CC4)CC(N4CCC6(CC4)COc4cc7c(cc46)n(C)c(=O)n7C4CCC(=O)NC4=O)C5)cc3)C2(C)C)ccc1C#N (relative stereo) [A-P-21] | 57 | 71 | 8.23 | – | – | – |
| (S)-3-((1-(4-(((S)-2-(3-chloro-4-cyanophenyl)-3-methyl-2,8-diazaspiro[4.5]decan-8-yl)phenyl)piperidin-4-yl)methyl)-N-(((S)-2,6-dioxopiperidin-3-yl)-1,2,3,4,4a,5-hexahydrobenzo[b]pyrazi no[1,2-d][1,4]oxazine-8-carboxamide [A-P-57] | -31 | -21 | – | 0.67 | – | – |
| C[C@H]1CC2(CCN(c3ccc(N4CCC(CN5CCC6(CCc7cc(C(=O)N[C@H]8CCC(=O)NC8=O)c(F)cc7O6)CC5)CC4)cc3)CC2)CN1c1ccc(C#N)c(Cl)c1 [A-P-42, 1'-((1-(4-((S)-2-(3-chloro-4-cyanophenyl)-3-methyl-2,8-diazaspiro[4.5]decan-8-yl)phenyl)piperidin-4-yl)methyl)-N-((S)-2,6-dioxopiperidin-3-yl)-7-fluorospiro[chroman-2,4'-piperidin]-6-carboxamide] | – | – | 0.19 | – | -40 | -4 |
| C[C@H]1CC2(CCN(c3ccc(C(=O)N4CCC(CN5CCN6c7ccc(C(=O)N[C@H]8CCC(=O)NC8=O)cc7OC[C@H]6C5)CC4)cc3)CC2)CN1c1ccc(C#N)c(Cl)c1 [A-P-68] | 5 | 33 | 0.97 | – | – | – |
| COc1cc(O[C@H]2C(C)(C)[C@H](NC(=O)c3ccc(N4CCC(F)(CN5CCC6(CC5)COc5c6ccc(C(=O)N[C@H]6CCC(=O)NC6=O)c5F)CC4)cc3)C2(C)C)ccc1C#N [A-P-84] | -14 | -17 | 0.11 | – | – | – |
| COc1cc(O[C@H]2CC[C@H](NC(=O)c3ccc(N4CCC(CN5CCC6(CC5)COc5cc7c(cc56)n(C)c(=O)n7C5CCC(=O)NC5=O)CC4)nn3)CC2)ccc1C#N (relative stereo) [A-P-17] | 81 | 75 | 91.2 | – | – | – |
| Cn1c(=O)n(C2CCC(=O)NC2=O)c2ccc3c(c21)OCC31CCN(CC2CCN(c3ccc(C(=O)N[C@H]4CC[C@H](Oc5ccc(C#N)c(Cl)c5)CC4)nn3)CC2)CC1 (stereo partly drawn) [A-P-24] | – | – | 22.8 | – | 85 | 85 |
| COc1cc(O[C@H]2CC[C@H](NC(=O)c3ccc(N4CCC(N5CCC6(CC5)COc5cc7c(cc56)n(C)c(=O)n7C5CCC(=O)NC5=O)CC4)nn3)CC2)ccc1C#N (stereo partly drawn) [A-P-18, N-((1r,4r)-4-(4-cyano-3-methoxyphenoxy)cyclohexyl)-6-(4-(3-(2,6-dioxopyridyl-3-yl)-1-methyl-2-oxo-2,3-dihydro-1H,6H-spiro[benzofuro[5,6-d]imidazole-7,4'-piperidin]-1'-yl)piperidin-1-yl)pyridazine-3-carboxamide] | – | – | 120 | – | 76 | 73 |
| COc1cc(O[C@H]2C(C)(C)[C@H](NC(=O)c3ccc(N4CCC(F)(CN5CCC6(CC5)COc5cc7c(cc56)n(C)c(=O)n7C5CCC(=O)NC5=O)CC4)cc3)C2(C)C)ccc1C#N (stereo partly drawn) [A-P-13] | – | – | 61 | – | 44 | 77 |
